Results taken from patent US20170327471A1, “Aryl sulphide and aryl sulphoxide derivatives having C-C-attached uracils as pesticides” (BAYER CROPSCIENCE AKTIENGESELLSCHAFT, priority 2014, published 2017).
Where two headings read alike, the source gives them in different places.

Legend:
Phaedon cochleariae = Phaedon cochleariae spray test; assay type: in vivo; conditions: application rate 500 g/ha, after 7 days, Chinese cabbage leaf discs
Method: 3. Phaedon cochleariae—Spray Test Solvent: 78.0 parts by weight of acetone • • 1.5 parts by weight of dimethylformamide Emulsifier: alkylaryl polyglycol ether
(§1) To produce a suitable preparation of active compound, 1 part by weight of active compound is dissolved using the stated parts by weight of solvent and made up with water containing an emulsifier concentration of 1000 ppm until the desired concentration is attained. To produce further test concentrations, the preparation is diluted with emulsifier-containing water.
After 7 days, the efficacy in % is determined. 100% means that all the beetle larvae have been killed; 0% means that no beetle larvae have been killed.

Meloidogyne incognita = Meloidogyne incognita test (sand, lettuce, solvent acetone); assay type: in vivo; conditions: application rate 20 ppm, after 14 days, lettuce in sand
Method: 2. Meloidogyne incognita Test Solvent: 125.0 parts by weight of acetone To produce a suitable preparation of active compound, 1 part by weight of active compound is mixed with the stated amount of solvent and the concentrate is diluted with water to the desired concentration. Vessels are filled with sand, active compound solution, an egg/larvae suspension of the southern root-knot nematode (Meloidogyne incognita) and lettuce seeds. The lettuce seeds germinate and the plants develop. The galls develop on the roots. After 14 days, the nematicidal efficacy in % is determined by the formation of galls. 100% means that no galls were found; 0% means that the number of galls on the treated plants corresponds to the untreated control.

Tetranychus urticae [1] = assay: Tetranychus urticae spray test, OP-resistant (bean plants); assay type: in vivo; conditions: application rate 20 ppm, after 7 days
Method: 5. Tetranychus urticae-Spray Test, OP-Resistant Solvent: 7 parts by weight of dimethylformamide Emulsifier: alkylaryl polyglycol ether
as §1, with “water. If the addition of ammonium salts or/and penetrants is required, these are each added in a concentration of 1000 ppm to the preparation solution.” for “water.”
Bean plants (Phaseolus vulgaris) heavily infested by all stages of the greenhouse red spider mite (Tetranychus urticae) are sprayed with an active compound preparation of the desired concentration.
After 7 days, the efficacy in % is determined. 100% means that all the spider mites have been killed; 0% means that none of the spider mites have been killed.

[2] = logP by reversed-phase HPLC (EEC Directive 79/831 Annex V.A8); assay type: physicochemical; conditions: for chromatographic logP: reversed-phase C18 HPLC column
Method: The logP values were determined in accordance with EEC Directive 79/831 Annex V.A8 by HPLC (High Performance Liquid Chromatography) using reversed-phase columns (C 18) by the following methods:
^[a] The LC-MS determination in the acidic range was effected at pH 2.7 with 0.1% aqueous formic acid and acetonitrile (contains 0.1% formic acid) as eluents; linear gradient from 10% acetonitrile to 95% acetonitrile. Called logP (HCOOH) in the table.
^[b] LC-MS determination in the neutral range was effected at pH 7.8 with 0.001 molar aqueous ammonium hydrogencarbonate solution and acetonitrile as eluents; linear gradient from 10% acetonitrile to 95% acetonitrile. Called logP (neutral) in the table.
Calibration was effected with unbranched alkan-2-ones (having 3 to 16 carbon atoms) with known logP values (logP values determined on the basis of the retention times by linear interpolation between two successive alkanones).

Tetranychus urticae [3] = assay: Tetranychus urticae spray test, OP-resistant (bean leaf discs); assay type: in vivo; conditions: application rate 500 g/ha, after 6 days
Method: 4. Tetranychus urticae—Spray Test, OP-Resistant Solvent: 78.0 parts by weight of acetone • • 1.5 parts by weight of dimethylformamide Emulsifier: alkylaryl polyglycol ether
as §1
Discs of bean leaves (Phaseolus vulgaris) infested with all stages of the greenhouse red spider mite (Tetranychus urticae) are sprayed with an active compound preparation of the desired concentration.
After 6 days, the efficacy in % is determined. 100% means that all the spider mites have been killed; 0% means that none of the spider mites have been killed.

Tetranychus urticae [4] = assay: Tetranychus urticae drench test, OP-resistant; assay type: in vivo; conditions: application rate 4 ppm, after 14 days, bean plants in soil
Method: 6. Tetranychus urticae—Drench Test, OP-Resistant Solvent: 7 parts by weight of dimethylformamide Emulsifier: 2 parts by weight of alkylaryl polyglycol ether
To produce a suitable preparation of active compound, 1 part by weight of active compound is mixed with the stated amounts of solvent and emulsifier, and the concentrate is diluted with water to the desired concentration, where the volume of soil to be drenched has to be taken into account. Here, it has to be made sure that a concentration of 40 ppm of emulsifier in the soil is not exceeded. To produce further test concentrations, the mixture is diluted with water.
Bean plants (Phaseolus vulgaris) in pots filled with soil, which plants are heavily infested by all stages of the greenhouse red spider mite (Tetranychus urticae), are watered with an active compound preparation of the desired concentration.
After 14 days, the efficacy in % is assessed. 100% means that all spider mites have been killed; 0% means that none of the spider mites have been killed.

Boophilus microplus = Boophilus microplus injection test; assay type: in vivo; conditions: application rate, injection into engorged adult female cattle ticks, after 7 days
Method: 1. Boophilus microplus—Injection Test Solvent: dimethyl sulphoxide
To produce a suitable preparation of active compound, 10 mg of active compound are mixed with 0.5 ml of solvent and the concentrate is diluted with solvent to the desired concentration.
1 μl of the active compound solution is injected into the abdomen of 5 engorged adult female cattle ticks (Boophilus microplus). The animals are transferred into dishes and kept in a climate-controlled room.
Efficacy is assessed after 7 days by laying of fertile eggs. Eggs which are not visibly fertile are stored in a climate-controlled cabinet until the larvae hatch after about 42 days. An efficacy of 100% means that none of the ticks has laid any fertile eggs; 0% means that all the eggs are fertile.

[5] = acidic range, pH 2.7, 0.1% aqueous formic acid/acetonitrile, read-out: logP (HCOOH) = logP[a]
[6] = neutral range, pH 7.8, 0.001 molar aqueous ammonium hydrogencarbonate/acetonitrile, read-out: logP (neutral) = logP[b]
[7] = acidic range, pH 2.7, 0.1% aqueous formic acid/acetonitrile
[8] = neutral range, pH 7.8, 0.001 molar aqueous ammonium hydrogencarbonate/acetonitrile

SMILES	chromatographic logP [2, 5]	efficacy (spider mites killed) (Tetranychus urticae [3])	logP (HCOOH) = logP[a] [2, 7]	logP (neutral) = logP[b] [2, 8]	other results
Cc1cc(F)c(-c2cc(=O)n(C)c(=O)n2C)cc1SCC(F)(F)F [Example I-2, 6-{2-Fluoro-4-methyl-5-[(2,2,2-trifluoroethyl)sulphanyl]phenyl}-1,3-dimethylpyrimidine-2,4(1H,3H)-dione]	2.86	100%	–	–	efficacy (beetle larvae killed) (Phaedon cochleariae): 83%; nematicidal efficacy (formation of galls) (Meloidogyne incognita): 90%; efficacy (spider mites killed) (Tetranychus urticae [1]): 100%; chromatographic logP [2, 6]: 2.74; efficacy (spider mites killed) (Tetranychus urticae [4]): 99%; efficacy (no fertile eggs laid) (Boophilus microplus): 100%
CCOC(=O)CC(=O)c1cc(SCC(F)(F)F)c(C)cc1F [VI-01, ethyl 3-{2-fluoro-4-methyl-5-[(2,2,2-trifluoroethyl)sulphanyl]phenyl}-3-oxopropanoate]	3.57	–	–	–	chromatographic logP [2, 6]: 3.59
Cc1cc(C)c(-c2cc(=O)n(C)c(=O)n2C)cc1SCC(F)(F)F [Example I-4]	2.98	–	–	–	–
Cc1cc(C)c([S+]([O-])CC(F)(F)F)cc1-c1cc(=O)n(C)c(=O)n1C (stereo not drawn) [Example I-12]	–	100%	1.89	1.82	efficacy (no fertile eggs laid) (Boophilus microplus): 100%
Cc1cc(F)c(-c2c(Cl)c(=O)n(C)c(=O)n2C)cc1SCC(F)(F)F [Example I-16, 5-Chloro-6-{2-fluoro-4-methyl-5-[(2,2,2-trifluoroethyl)sulphanyl]phenyl}-1,3-dimethylpyrimidine-2,4(1H,3H)-dione]	3.15	90%	–	–	–
CCn1c(-c2cc(SCC(F)(F)F)c(C)cc2F)cc(=O)n(CC)c1=O [Example I-7]	–	90%	3.54	3.47	efficacy (spider mites killed) (Tetranychus urticae [1]): 100%
CCn1c(-c2cc([S+]([O-])CC(F)(F)F)c(C)cc2F)cc(=O)n(CC)c1=O (stereo not drawn) [Example I-10]	–	100%	2.37	2.28	efficacy (spider mites killed) (Tetranychus urticae [1]): 100%; efficacy (spider mites killed) (Tetranychus urticae [4]): 95%; efficacy (no fertile eggs laid) (Boophilus microplus): 100%
CCn1c(=O)c(F)c(Cl)n(C)c1=O [II-01, 6-chloro-3-ethyl-5-fluoro-1-methylpyrimidine-2,4(1H,3H)-dione]	1.31	–	–	–	–
Cc1cc(F)c(-c2cc(=O)n(C)c(=O)[nH]2)cc1SCC(F)(F)F [Example I-13, 6-{2-Fluoro-4-methyl-5-[(2,2,2-trifluoroethyl)sulphanyl]phenyl}-3-methylpyrimidine-2,4(1H,3H)-dione]	2.38	–	–	–	chromatographic logP [2, 6]: 2.25
CCCn1c(-c2cc(SCC(F)(F)F)c(C)cc2F)cc(=O)n(CCC)c1=O [Example I-5]	–	90%	4.26	4.16	–
Cc1cc(F)c(-c2cc(=O)n(C(C)C)c(=O)n2C(C)C)cc1SCC(F)(F)F [Example I-6]	–	100%	4.52	4.42	–
CCn1c(=O)c(C)c(Cl)n(C)c1=O [II-02, 6-chloro-3-ethyl-1,5-dimethylpyrimidine-2,4(1H,3H)-dione]	1.59	–	–	–	–
CCn1c(=O)[nH]c(-c2cc(SCC(F)(F)F)c(C)cc2F)c(F)c1=O [Example I-8]	–	–	2.72	–	–
CCn1c(=O)c(F)c(-c2cc(SCC(F)(F)F)c(C)cc2F)n(C)c1=O [Example I-3, 3-Ethyl-5-fluoro-6-{2-fluoro-4-methyl-5-[(2,2,2-trifluoroethyl)-sulphanyl]phenyl}-1-methylpyrimidine-2,4(1H,3H)-dione]	3.32	–	–	–	chromatographic logP [2, 6]: 3.42
Cc1cc(F)c(-c2cc(=O)[nH]c(=S)[nH]2)cc1SCC(F)(F)F [Example I-14, 6-{2-Fluoro-4-methyl-5-[(2,2,2-trifluoroethyl)sulphanyl]phenyl}-2-thioxo-2,3-dihydropyrimidin-4(1H)-one]	2.34	–	–	–	chromatographic logP [2, 6]: 1.54
Cc1cc(F)c(-c2cc(=O)n(C)c(=O)[nH]2)cc1[S+]([O-])CC(F)(F)F (stereo not drawn) [Example I-17]	–	–	1.41	1.43	–
CCn1c(=O)c(F)c(-c2cc([S+]([O-])CC(F)(F)F)c(C)cc2F)n(C)c1=O (stereo not drawn) [Example I-11]	–	100%	2.20	2.19	efficacy (no fertile eggs laid) (Boophilus microplus): 100%
Cc1cc(F)c(-c2cc(=O)n(CC(F)(F)F)c(=S)n2C)cc1SCC(F)(F)F [Example I-15]	–	90%	4.34	–	efficacy (beetle larvae killed) (Phaedon cochleariae): 100%; efficacy (spider mites killed) (Tetranychus urticae [1]): 100%; efficacy (spider mites killed) (Tetranychus urticae [4]): 100%
Cc1cc(F)c(-c2cc(=O)n(C(C)C)c(=O)n2C(C)C)cc1[S+]([O-])CC(F)(F)F (stereo not drawn) [Example I-9]	–	100%	3.19	3.10	efficacy (no fertile eggs laid) (Boophilus microplus): 100%
